Source: US12662491B2 (Redona Therapeutics, Inc., priority 2020, dated 2026)

molecular target: T1, Zcchc11 enzyme (Homo sapiens, UniProt Q5TAX3); experiment: TUTase assay (Zcchc11 assay, Lin28a-dependent polyuridylation of pre-let-7); type: biochemical; conditions: LIN28A 10 nM, Zcchc11 0.2 nM, 5′-fluorescein pre-let-7 miRNA 2 nM, UTP 5 uM, room temperature, 30 minutes pre-incubation; read-out: Potency Lin28a-dep Z11 IC50
T1 construct: made in house; host or cells: HEK293 cells (Zcchc11); E. coli Rosetta II (LIN28A)
T1 sequence (Q5TAX3 212-1420): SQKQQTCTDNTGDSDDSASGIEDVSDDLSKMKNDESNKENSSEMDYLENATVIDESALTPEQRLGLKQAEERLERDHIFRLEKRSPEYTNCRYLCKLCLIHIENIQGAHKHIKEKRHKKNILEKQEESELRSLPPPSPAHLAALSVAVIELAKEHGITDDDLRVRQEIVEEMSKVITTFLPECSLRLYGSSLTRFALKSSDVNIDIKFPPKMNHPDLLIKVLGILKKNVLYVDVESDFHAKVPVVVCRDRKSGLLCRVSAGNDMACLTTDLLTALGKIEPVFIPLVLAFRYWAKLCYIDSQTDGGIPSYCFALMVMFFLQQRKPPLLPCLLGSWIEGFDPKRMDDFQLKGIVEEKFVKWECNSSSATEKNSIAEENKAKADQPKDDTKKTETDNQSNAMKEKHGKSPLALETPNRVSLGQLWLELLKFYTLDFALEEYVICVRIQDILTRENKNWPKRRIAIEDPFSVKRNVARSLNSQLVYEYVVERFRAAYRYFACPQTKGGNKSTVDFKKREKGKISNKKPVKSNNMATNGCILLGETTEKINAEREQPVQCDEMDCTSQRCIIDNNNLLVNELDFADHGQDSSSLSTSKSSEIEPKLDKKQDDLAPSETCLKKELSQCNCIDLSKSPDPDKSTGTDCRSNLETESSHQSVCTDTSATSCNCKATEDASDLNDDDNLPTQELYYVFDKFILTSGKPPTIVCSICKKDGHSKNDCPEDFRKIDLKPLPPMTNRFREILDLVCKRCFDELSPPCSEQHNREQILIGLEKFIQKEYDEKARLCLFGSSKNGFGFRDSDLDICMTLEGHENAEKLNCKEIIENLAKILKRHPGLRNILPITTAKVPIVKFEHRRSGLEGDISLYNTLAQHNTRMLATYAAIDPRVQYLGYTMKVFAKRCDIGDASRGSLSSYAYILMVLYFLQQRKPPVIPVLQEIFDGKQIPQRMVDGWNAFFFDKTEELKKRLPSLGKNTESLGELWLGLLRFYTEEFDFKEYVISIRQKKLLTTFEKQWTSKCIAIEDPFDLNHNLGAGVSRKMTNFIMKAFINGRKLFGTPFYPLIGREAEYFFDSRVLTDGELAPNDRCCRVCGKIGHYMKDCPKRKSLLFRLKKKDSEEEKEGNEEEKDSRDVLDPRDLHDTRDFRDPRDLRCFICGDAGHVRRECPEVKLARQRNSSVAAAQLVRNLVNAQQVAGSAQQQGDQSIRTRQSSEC
In short: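 Polyuridylation measured as fluorescein loss when a rhodamine-labelled A20 probe anneals to U-tails added to fluorescein pre-let-7 (2 nM). Reaction: truncated Zcchc11 0.2 nM, E. coli-made LIN28A 10 nM, UTP 5 uM, HEPES pH 7.3, room temperature. Initial rates fitted to four-parameter IC50.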

IC50 [nM]	Compound
≤ 1000	C[C@H]1CCN(c2cc3c(cc2Cl)c(=O)c(C(=O)O)cn3-c2ccc(N3CC(N(C)C)C3)nc2)[C@H]1COc1ncccc1Cl (racemic) [Example 44, rac-6-chloro-7-((2R,3S)-2-(((3-chloropyridin-2-yl)oxy)methyl)-3-methylpyrrolidin-1-yl)-1-(6-(3-(dimethylamino)azetidin-1-yl)pyridin-3-yl)-4-oxo-1,4-dihydroquinoline-3-carboxylic acid]
≤ 1000	O=C(O)c1cn(-c2ccc(OCCO)cc2)c2cc(N3CCC[C@@H]3COc3ncccc3Br)c(F)cc2c1=O [Example 21, (R)-7-(2-(((3-bromopyridin-2-yl)oxy)methyl)pyrrolidin-1-yl)-6-fluoro-1-(4-(2-hydroxyethoxy)phenyl)-4-oxo-1,4-dihydroquinoline-3-carboxylic acid]

same assay, conditions: Lin28a-dependent Zcchc11 (Z11) TUTase activity; read-out: Potency Lin28a-dep Z11 IC50

IC50 [nM]	Compound
≤ 1000	CN(C)C1CN(c2ccc(-n3cc(C(=O)O)c(=O)c4cc(Cl)c(N5CCC[C@@H]5COc5ncncc5Cl)cc43)cn2)C1 [Compound 167, (R)-6-chloro-7-(2-(((5-chloro-pyrimidin-4-yl)oxy)methyl)pyrrolidin-1-yl)-1-(6-(3-(dimethyl-amino)azetidin-1-yl)pyridin-3-yl)-4-oxo-1,4-dihydro-quinoline-3-carboxylic acid]
≤ 1000	CN(C)C1CN(c2ccc(-n3cc(C(=O)O)c(=O)c4cc(Cl)c(N5CC6(CC6)C[C@@H]5COc5ncccc5Cl)cc43)cn2)C1 [Compound 347, (R)-6-chloro-7-(6-(((3-chloropyridin-2-yl)oxy)methyl)-5-azaspiro[2.4]heptan-5-yl)-1-(6-(3-(dimethyl-amino)azetidin-1-yl)pyridin-3-yl)-4-oxo-1,4-dihydro-quinoline-3-carboxylic acid]
≤ 1000	Cc1cccnc1OC[C@H]1CCCN1c1cc2c(cc1F)c(=O)c(C(=O)O)cn2C1CC1 [Compound 102, (R)-1-cyclopropyl-6-fluoro-7-(2-(((3-methyl-pyridin-2-yl)oxy)methyl)pyrrolidin-1-yl)-4-oxo-1,4-dihydro-quinoline-3-carboxylic acid]
≤ 1000	COCCN(C)C1CN(c2ccc(-n3cc(C(=O)O)c(=O)c4cc(F)c(N5CC[C@H](C)[C@@H]5COc5ncccc5Cl)cc43)cn2)C1 (racemic) [Compound 262, rac-7-((2R,3S)-2-(((3-chloropyridin-2-yl)oxy)methyl)-3-methyl-pyrrolidin-1-yl)-6-fluoro-1-(6-(3-((2-methoxy-ethyl)(methyl)amino)azetidin-1-yl)pyridin-3-yl)-4-oxo-1,4-dihydro-quinoline-3-carboxylic acid]
1000 to 10000	CN(C)C1CN(c2ccc(-n3cc(C(=O)O)c(=O)c4cc(Cl)c(N5CCC5COc5ccccn5)cc43)cn2)C1 (stereo not shown) [Compound 219, 6-chloro-1-[6-[3-(dimethyl-amino)azetidin-1-yl]pyridin-3-yl]-4-oxo-7-[2-[(pyridin-2-yloxy)methyl]azetidin-1-yl]quinoline-3-carboxylic acid]
≤ 1000	CN(C)C1CN(c2ccc(-n3cc(C(=O)O)c(=O)c4cc(Cl)c(N5CCC[C@@H]5COc5nc6nc[nH]c6cc5Cl)cc43)cn2)C1 [Compound 204, (R)-6-chloro-7-(2-(((6-chloro-1H-imidazo [4,5-b]pyridin-5-yl)oxy)methyl)pyrrolidin-1-yl)-1-(6-(3-(dimethyl-amino)azetidin-1-yl)pyridin-3-yl)-4-oxo-1,4-dihydro-quinoline-3-carboxylic acid]
≤ 1000	CN(C)C1CN(c2ccc(-n3cc(C(=O)O)c(=O)c4cc(F)c(N5CCC[C@@H]5COc5ncccc5Cl)cc43)cn2)C1 [Compound 222, 7-[(2R)-2-[[(3-chloropyridin-2-yl)oxy]methyl]pyrrolidin-1-yl]-1-[6-[3-(dimethyl-amino)azetidin-1-yl]pyridin-3-yl]-6-fluoro-4-oxoquinoline-3-carboxylic acid]
≤ 1000	Cn1cc(-n2cc(C(=O)O)c(=O)c3cc(F)c(N4CCC[C@@H]4COc4ncccc4F)cc32)cn1 (racemic) [Compound 290, rac-(R)-6-fluoro-7-(2-(((3-fluoropyridin-2-yl)oxy)methyl)pyrrolidin-1-yl)-1-(1-methyl-1H-pyrazol-4-yl)-4-oxo-1,4-dihydro-quinoline-3-carboxylic acid]

same assay, conditions: Lin28a-dependent Zcchc11 (Z11) TUTase assay; read-out: Potency Lin28a-dep Z11 IC50

IC50 [nM]	Compound
≤ 1000	COc1ccc(Cl)c(OC[C@H]2CC3(CC3)CN2c2cc3c(cc2Cl)c(=O)c(C(=O)O)cn3-c2ccc(N3CC(N(C)C)C3)nc2)n1 [Example 663, (R)-6-chloro-7-(6-(((3-chloro-6-methoxypyridin-2-yl)oxy)methyl)-5-azaspiro[2.4]heptan-5-yl)-1-(6-(3-(dimethylamino)azetidin-1-yl)pyridin-3-yl)-4-oxo-1,4-dihydroquinoline-3-carboxylic acid]
≤ 1000	O=C(O)c1cn(-c2ncco2)c2cc(N3CCC[C@@H]3COc3ncccc3Cl)c(Cl)cc2c1=O [Example 485, (R)-6-chloro-7-(2-(((3-chloropyridin-2-yl)oxy)methyl)pyrrolidin-1-yl)-1-(oxazol-2-yl)-4-oxo-1,4-dihydroquinoline-3-carboxylic acid]
≤ 1000	COc1ccnc(OC[C@H]2C[C@H]3C[C@H]3N2c2nc3c(cc2Cl)c(=O)c(C(=O)O)cn3-c2ccc(N3CC(N(C)C)C3)nc2)c1Cl [Example 679, 6-chloro-7-((1R,3R,5R)-3-(((3-chloro-4-methoxypyridin-2-yl)oxy)methyl)-2-azabicyclo[3.1.0]hexan-2-yl)-1-(6-(3-(dimethylamino)azetidin-1-yl)pyridin-3-yl)-4-oxo-1,4-dihydro-1,8-naphthyridine-3-carboxylic acid]
≤ 1000	CN(C)C1CN(c2cc(-n3cc(C(=O)O)c(=O)c4cc(Cl)c(N5CCC[C@@H]5COc5ccccn5)cc43)ccn2)C1 [Example 564, (R)-6-chloro-1-(2-(3-(dimethylamino)azetidin-1-yl)pyridin-4-yl)-4-oxo-7-(2-((pyridin-2-yloxy)methyl)pyrrolidin-1-yl)-1,4-dihydroquinoline-3-carboxylic acid]
≤ 1000	COc1ccc(Cl)c(OC[C@H]2CC(C)(C)CN2c2cc3c(cc2Cl)c(=O)c(C(=O)O)cn3-c2ccc(N3CC(N(C)C)C3)nc2)n1 [Example 648, (R)-6-chloro-7-(2-(((3-chloro-6-methoxypyridin-2-yl)oxy)methyl)-4,4-dimethylpyrrolidin-1-yl)-1-(6-(3-(dimethylamino)azetidin-1-yl)pyridin-3-yl)-4-oxo-1,4-dihydroquinoline-3-carboxylic acid]
≤ 1000	O=C(O)c1cn(-c2ccc(N3CCCCC3)nc2)c2cc(N3CCC[C@@H]3COc3ncccc3Cl)c(Cl)cc2c1=O [Example 430, (R)-6-chloro-7-(2-(((3-chloropyridin-2-yl)oxy)methyl)pyrrolidin-1-yl)-4-oxo-1-(6-(piperidin-1-yl)pyridin-3-yl)-1,4-dihydroquinoline-3-carboxylic acid]
≤ 1000	CS(=O)(=O)Nc1ccc(-n2cc(C(=O)O)c(=O)c3cc(Cl)c(N4CCC[C@@H]4COc4ncccc4Cl)cc32)cc1 [Example 427, (R)-6-chloro-7-(2-(((3-chloropyridin-2-yl)oxy)methyl)pyrrolidin-1-yl)-1-(4-(methyl-sulfonamido)phenyl)-4-oxo-1,4-dihydroquinoline-3-carboxylic acid]
1000 to 10000	O=C(O)c1cn(C2CCOCC2)c2cc(N3CCC[C@@H]3COc3ccccn3)c(F)cc2c1=O [Example 450, (R)-6-fluoro-4-oxo-7-(2-((pyridin-2-yloxy)methyl)pyrrolidin-1-yl)-1-(tetrahydro-2H-pyran-4-yl)-1,4-dihydroquinoline-3-carboxylic acid]
≤ 1000	O=C(O)c1cn(-c2ccc(OCCO)cc2)c2cc(N3CCC[C@@H]3COc3ccccn3)c(F)cc2c1=O [Example 405, (R)-6-fluoro-1-(4-(2-hydroxyethoxy)phenyl)-4-oxo-7-(2-((pyridin-2-yloxy)methyl)pyrrolidin-1-yl)-1,4-dihydroquinoline-3-carboxylic acid]
